Data taken from ChEMBL document CHEMBL1201862, “PubChem BioAssay data set” (2004).
Values belong to the molecule of their own block, whether it stands above or below them. The source made the active and inactive calls.

Assays:
[1] = target: T1, Tyrosyl-DNA phosphodiesterase 2 (Homo sapiens, UniProt O95551); test: human TDP2 enzyme inhibitors, dose response, biochemical, epi absorbance, IC50 (AID 743297)
T1 sequence (O95551 whole entry): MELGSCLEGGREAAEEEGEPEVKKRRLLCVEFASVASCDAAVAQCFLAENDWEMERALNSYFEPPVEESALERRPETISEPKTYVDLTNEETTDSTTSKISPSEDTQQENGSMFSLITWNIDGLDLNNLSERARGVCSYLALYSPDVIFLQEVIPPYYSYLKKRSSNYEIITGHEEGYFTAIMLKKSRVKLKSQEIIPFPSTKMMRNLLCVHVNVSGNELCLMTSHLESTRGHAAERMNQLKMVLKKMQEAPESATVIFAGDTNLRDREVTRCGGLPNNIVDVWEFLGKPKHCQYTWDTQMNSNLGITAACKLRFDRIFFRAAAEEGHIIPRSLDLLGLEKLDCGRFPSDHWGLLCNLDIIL

[2] = target: T2, Histone-lysine N-methyltransferase NSD2 (Homo sapiens, UniProt O96028); assay type: biochemical
T2 sequence (O96028 whole entry): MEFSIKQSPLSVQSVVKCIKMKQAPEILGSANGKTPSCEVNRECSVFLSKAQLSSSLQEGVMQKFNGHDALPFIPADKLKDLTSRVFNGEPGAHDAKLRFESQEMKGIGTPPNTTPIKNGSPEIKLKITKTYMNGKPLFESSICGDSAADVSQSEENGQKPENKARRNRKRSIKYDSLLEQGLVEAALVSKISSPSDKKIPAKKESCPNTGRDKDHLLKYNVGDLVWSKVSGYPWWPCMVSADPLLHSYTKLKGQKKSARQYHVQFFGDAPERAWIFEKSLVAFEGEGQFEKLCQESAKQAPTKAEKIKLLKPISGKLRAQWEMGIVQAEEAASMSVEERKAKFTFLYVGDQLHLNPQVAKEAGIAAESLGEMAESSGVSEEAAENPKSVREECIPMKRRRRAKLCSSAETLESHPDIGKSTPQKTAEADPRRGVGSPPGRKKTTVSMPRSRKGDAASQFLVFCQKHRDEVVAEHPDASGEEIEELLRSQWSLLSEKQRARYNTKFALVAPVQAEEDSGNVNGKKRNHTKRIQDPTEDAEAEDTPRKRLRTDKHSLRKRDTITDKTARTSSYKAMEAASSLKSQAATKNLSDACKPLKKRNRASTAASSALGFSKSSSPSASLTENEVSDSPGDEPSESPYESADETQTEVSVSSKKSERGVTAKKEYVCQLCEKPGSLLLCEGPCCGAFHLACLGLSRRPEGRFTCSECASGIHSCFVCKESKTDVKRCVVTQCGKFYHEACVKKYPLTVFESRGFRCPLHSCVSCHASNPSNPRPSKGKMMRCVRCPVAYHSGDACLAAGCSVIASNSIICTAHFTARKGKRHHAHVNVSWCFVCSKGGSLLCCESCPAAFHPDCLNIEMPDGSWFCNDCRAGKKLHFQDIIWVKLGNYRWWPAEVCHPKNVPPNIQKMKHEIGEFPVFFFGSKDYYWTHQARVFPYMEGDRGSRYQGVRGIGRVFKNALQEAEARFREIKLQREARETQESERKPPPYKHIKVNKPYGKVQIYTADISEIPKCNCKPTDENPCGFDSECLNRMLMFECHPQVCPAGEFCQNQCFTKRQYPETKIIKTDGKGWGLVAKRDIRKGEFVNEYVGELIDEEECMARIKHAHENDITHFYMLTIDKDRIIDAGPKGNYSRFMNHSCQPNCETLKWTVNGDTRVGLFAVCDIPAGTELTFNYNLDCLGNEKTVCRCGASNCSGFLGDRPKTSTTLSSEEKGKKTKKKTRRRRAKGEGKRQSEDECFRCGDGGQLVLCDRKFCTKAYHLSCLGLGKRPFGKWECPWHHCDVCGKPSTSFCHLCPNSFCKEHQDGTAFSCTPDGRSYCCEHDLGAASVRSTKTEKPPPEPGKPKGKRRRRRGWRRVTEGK

[3] = target: Glucose-6-phosphate 1-dehydrogenase (Homo sapiens, UniProt P11413); test: human G6PD enzyme inhibitors, dose response, selectivity assay for P. falciparum G6PD inhibitor project, biochemical, fluorescence (AID 504792); assay type: functional
Glucose-6-phosphate 1-dehydrogenase, sequence (P11413 whole entry): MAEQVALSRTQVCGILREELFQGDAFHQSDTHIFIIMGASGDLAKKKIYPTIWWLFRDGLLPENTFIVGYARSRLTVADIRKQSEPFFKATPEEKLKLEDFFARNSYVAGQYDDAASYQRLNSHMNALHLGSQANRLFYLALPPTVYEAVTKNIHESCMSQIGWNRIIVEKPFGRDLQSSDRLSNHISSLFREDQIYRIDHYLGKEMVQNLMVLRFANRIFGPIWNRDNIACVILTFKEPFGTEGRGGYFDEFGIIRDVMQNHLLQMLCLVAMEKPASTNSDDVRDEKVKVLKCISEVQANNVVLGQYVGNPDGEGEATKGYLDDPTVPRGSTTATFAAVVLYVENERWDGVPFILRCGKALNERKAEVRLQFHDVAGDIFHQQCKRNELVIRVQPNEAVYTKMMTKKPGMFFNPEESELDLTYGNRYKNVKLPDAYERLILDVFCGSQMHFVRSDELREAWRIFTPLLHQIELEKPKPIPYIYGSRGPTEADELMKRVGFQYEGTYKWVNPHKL

[4] = AlphaScreen signal interference compounds, dose response, artefact control for ARNT-TACC3 interaction inhibitor project, biochemical, luminescence, cherry-pick (AID 651705); assay type: functional;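 further: AlphaScreen bead proximity signal that flags compounds interfering with the detection technology; potency reflects signal decrease which marks the compound as an assay artifact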
Hexokinase HKDC1 = target: T3, Hexokinase HKDC1 (Homo sapiens, UniProt Q2TB90); test: HKDC1 hexokinase inhibitors, dose response, biochemical, W721R variant (AID 504729); assay type: functional
T3 sequence (Q2TB90 whole entry): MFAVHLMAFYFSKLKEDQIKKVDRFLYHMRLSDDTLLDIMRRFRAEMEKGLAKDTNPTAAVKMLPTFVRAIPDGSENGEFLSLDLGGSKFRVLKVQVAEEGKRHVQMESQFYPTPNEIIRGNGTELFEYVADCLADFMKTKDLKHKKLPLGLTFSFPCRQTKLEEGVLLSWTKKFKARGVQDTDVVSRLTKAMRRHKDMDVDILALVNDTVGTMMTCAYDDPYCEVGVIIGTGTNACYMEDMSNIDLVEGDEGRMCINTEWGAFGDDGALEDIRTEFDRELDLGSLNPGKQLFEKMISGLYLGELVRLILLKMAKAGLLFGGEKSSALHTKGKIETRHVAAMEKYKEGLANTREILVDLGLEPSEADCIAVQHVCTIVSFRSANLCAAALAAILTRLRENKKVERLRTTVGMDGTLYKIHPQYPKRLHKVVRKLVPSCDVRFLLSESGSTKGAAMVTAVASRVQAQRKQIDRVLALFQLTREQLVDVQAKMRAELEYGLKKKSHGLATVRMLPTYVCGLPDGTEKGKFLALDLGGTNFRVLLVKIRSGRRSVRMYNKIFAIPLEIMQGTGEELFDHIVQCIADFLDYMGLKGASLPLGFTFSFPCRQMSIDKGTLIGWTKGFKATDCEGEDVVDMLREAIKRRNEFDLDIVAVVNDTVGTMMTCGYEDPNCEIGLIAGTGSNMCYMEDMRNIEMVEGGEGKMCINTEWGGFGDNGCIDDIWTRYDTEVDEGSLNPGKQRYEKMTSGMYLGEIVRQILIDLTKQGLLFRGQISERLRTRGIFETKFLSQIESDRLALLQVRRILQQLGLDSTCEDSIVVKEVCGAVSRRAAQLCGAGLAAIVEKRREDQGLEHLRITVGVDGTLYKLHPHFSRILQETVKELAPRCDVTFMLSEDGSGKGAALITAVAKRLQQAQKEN

X-box-binding protein 1 = X-box-binding protein 1 (Homo sapiens, UniProt P17861); assay type: functional, Cricetulus griseus;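 further: confirmatory dose-response counter-screen serving a CHOP assay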
X-box-binding protein 1, sequence (P17861 whole entry): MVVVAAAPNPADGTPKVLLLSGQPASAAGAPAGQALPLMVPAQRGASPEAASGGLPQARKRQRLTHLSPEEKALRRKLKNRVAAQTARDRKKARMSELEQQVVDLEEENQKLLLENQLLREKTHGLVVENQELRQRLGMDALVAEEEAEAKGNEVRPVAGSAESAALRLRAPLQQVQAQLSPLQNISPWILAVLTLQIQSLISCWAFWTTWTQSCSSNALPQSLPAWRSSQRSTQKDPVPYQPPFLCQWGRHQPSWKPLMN

[5] = target: Cyclin-dependent kinase 5/CDK5 activator 1 (Homo sapiens, UniProt Q00535); test: CDK5/p35 kinase inhibitors, dose response, biochemical, cherry-picked samples, set 2 (AID 504545)
[6] = target: G-protein coupled receptor 35 (Homo sapiens, UniProt Q9HC97); test: GPR35 antagonists blocking zaprinast-driven arrestin recruitment, primary screen, imaging, U2OS, beta-arrestin-GFP, zaprinast agonist (AID 2058); assay type: functional;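 further: antagonist potency meaning inhibition of agonist-induced arrestin redistribution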
Genome polyprotein = Genome polyprotein (dengue virus type 2, UniProt P29990); test: Dengue-2 NS5 methyltransferase inhibitors, primary screen, biochemical, confirmation dose response (AID 588689); assay type: functional
Genome polyprotein, sequence (P29990 2492-3391 limits assumed): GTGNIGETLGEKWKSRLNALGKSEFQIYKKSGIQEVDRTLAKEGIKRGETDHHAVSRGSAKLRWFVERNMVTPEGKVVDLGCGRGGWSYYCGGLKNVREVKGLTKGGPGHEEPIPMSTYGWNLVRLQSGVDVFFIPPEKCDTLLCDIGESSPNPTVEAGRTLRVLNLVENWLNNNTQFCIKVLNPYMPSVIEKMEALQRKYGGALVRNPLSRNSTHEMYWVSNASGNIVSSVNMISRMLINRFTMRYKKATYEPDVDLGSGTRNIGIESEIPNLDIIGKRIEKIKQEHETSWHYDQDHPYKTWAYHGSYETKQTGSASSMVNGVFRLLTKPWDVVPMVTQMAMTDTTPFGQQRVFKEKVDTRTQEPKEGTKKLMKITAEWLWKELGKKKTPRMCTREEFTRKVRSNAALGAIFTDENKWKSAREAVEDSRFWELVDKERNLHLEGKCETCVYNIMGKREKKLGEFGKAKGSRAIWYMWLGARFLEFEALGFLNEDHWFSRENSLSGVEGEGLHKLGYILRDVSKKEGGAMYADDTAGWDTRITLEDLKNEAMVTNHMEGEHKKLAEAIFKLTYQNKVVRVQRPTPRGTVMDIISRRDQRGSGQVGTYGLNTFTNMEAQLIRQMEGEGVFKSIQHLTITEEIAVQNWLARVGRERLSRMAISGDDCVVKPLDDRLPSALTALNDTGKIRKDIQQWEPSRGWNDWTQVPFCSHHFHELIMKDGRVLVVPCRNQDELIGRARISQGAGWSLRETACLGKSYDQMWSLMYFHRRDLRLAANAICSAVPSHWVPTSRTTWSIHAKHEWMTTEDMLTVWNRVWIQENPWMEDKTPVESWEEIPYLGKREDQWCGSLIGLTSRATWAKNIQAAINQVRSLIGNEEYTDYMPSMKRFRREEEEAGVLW

Trypsin = Trypsin (Sus scrofa, UniProt P00761); test: porcine trypsin inhibitors, dose response, selectivity assay for Rce1 protease inhibitor project, biochemical, quenched peptide fluorescence, cherry-pick (AID 488789)
CAAX prenyl protease 2 = target: T4, CAAX prenyl protease 2 (Saccharomyces cerevisiae S288c, UniProt Q03530); assay type: biochemical
T4 sequence (Q03530 whole entry): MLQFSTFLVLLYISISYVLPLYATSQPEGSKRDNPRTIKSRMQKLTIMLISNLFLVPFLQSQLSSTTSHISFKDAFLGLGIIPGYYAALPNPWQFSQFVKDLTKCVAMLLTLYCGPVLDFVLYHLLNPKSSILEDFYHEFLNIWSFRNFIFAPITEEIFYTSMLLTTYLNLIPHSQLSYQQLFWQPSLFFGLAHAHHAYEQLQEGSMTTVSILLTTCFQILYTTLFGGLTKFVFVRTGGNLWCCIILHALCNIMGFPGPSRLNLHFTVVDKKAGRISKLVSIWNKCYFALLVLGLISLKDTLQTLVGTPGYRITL

[7] = target: T5, Voltage-gated N-type calcium channel alpha-1B subunit/Amyloid beta A4 precursor protein-binding family A member 1 (Homo sapiens, UniProt Q00975+Q02410); test: disruptors of Mint-PDZ/N-type channel peptide interaction – biochemical, HTRF, SAR follow-up (AID 2489); assay type: functional
T5 sequence (Q00975 whole entry): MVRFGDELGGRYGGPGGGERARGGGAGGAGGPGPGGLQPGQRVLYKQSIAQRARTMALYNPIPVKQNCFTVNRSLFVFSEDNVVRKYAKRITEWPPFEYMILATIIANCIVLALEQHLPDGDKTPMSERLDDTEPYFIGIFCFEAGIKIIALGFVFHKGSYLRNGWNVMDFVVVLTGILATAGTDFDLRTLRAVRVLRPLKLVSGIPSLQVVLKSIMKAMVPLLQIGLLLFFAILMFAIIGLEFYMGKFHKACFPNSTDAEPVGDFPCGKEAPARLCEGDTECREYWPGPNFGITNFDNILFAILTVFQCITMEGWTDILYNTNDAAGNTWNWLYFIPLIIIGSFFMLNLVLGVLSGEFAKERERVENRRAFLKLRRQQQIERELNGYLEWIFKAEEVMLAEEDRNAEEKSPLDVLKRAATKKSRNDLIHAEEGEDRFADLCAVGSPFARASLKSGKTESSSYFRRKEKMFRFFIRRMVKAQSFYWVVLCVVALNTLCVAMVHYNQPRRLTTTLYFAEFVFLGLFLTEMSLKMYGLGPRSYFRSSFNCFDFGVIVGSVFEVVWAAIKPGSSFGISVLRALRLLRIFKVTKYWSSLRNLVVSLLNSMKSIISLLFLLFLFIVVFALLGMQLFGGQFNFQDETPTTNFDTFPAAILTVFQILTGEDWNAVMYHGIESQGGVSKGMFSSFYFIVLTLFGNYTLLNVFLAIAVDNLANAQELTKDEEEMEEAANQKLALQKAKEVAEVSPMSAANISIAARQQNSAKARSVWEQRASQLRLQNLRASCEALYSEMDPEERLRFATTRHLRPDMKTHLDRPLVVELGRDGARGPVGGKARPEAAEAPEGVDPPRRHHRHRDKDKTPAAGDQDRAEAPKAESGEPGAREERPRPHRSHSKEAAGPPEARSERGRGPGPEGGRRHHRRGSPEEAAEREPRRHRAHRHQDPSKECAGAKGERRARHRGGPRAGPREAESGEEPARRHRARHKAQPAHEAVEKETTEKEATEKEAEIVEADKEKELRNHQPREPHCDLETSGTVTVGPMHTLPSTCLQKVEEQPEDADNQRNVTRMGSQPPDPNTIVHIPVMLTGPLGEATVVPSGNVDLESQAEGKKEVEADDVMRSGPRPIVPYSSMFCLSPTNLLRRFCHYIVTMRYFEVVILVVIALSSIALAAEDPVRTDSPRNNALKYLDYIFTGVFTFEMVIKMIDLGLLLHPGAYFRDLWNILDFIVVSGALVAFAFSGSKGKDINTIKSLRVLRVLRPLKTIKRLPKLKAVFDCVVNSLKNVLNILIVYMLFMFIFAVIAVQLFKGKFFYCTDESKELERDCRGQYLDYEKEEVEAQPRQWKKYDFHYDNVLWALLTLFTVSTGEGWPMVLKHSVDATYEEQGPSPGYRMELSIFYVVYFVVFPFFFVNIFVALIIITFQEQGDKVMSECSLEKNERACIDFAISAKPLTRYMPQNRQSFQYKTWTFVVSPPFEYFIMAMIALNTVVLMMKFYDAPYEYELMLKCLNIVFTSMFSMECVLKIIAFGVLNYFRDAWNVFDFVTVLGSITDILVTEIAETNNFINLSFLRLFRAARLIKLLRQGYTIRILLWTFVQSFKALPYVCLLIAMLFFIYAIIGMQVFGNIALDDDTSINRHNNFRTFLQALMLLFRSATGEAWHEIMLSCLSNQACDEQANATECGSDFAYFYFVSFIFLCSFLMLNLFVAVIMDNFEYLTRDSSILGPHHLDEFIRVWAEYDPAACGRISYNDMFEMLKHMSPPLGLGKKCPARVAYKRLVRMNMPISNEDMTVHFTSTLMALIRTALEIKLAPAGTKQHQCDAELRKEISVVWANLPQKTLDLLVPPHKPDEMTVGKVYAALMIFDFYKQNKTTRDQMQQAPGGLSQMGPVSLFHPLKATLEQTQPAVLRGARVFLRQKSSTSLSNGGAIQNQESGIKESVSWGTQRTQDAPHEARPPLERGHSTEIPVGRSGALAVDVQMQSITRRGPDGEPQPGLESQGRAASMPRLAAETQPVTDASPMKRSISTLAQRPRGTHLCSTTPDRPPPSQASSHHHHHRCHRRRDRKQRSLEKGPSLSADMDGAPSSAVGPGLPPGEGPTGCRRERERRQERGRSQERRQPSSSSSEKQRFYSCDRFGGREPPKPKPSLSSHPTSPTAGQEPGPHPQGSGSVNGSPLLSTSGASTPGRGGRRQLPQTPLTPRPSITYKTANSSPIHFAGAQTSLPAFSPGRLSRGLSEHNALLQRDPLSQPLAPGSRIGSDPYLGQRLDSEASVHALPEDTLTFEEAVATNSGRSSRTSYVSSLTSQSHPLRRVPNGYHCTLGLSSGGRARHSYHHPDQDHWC
T5 sequence (Q02410 whole entry): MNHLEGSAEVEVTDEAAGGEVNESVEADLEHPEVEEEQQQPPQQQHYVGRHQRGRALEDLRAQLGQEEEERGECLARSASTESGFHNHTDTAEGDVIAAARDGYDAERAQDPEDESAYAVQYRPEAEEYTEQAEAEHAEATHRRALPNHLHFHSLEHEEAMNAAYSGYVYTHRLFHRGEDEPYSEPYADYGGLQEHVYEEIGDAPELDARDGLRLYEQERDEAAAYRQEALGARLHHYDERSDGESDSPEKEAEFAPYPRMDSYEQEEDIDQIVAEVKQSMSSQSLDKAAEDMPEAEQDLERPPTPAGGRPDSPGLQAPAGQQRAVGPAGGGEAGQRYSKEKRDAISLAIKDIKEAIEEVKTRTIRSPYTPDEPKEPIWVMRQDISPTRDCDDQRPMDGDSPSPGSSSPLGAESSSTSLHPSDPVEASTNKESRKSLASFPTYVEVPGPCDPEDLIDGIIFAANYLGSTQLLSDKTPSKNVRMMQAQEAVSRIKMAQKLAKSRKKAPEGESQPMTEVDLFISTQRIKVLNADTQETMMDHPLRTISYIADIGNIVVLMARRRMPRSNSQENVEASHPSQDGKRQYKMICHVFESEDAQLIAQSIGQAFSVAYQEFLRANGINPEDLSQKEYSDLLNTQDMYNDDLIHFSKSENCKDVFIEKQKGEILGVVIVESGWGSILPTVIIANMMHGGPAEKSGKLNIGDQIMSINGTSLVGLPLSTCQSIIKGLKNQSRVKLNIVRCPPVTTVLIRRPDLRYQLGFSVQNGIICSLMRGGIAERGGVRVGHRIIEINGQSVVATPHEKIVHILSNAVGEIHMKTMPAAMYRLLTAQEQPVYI

[8] = target: T5, Voltage-gated N-type calcium channel alpha-1B subunit/Amyloid beta A4 precursor protein-binding family A member 1; assay type: protein assay
[9] = target: T5, Voltage-gated N-type calcium channel alpha-1B subunit/Amyloid beta A4 precursor protein-binding family A member 1; test: disruptors of Mint-PDZ/N-type channel peptide interaction – biochemical, HTRF, set 2, SAR follow-up (AID 434980); assay type: functional
[10] = target: T5, Voltage-gated N-type calcium channel alpha-1B subunit/Amyloid beta A4 precursor protein-binding family A member 1; assay type: protein assay; remark: listed apart in the source
[11] = target: Induced myeloid leukemia cell differentiation protein Mcl-1 (Homo sapiens, UniProt Q07820); test: MCL1-BIM BH3 interaction inhibitors, dose response, biochemical, fluorescence polarization, BIM-BH3 peptide, 1536-well (AID 2217)
[12] = target: T6, Tyrosine-protein phosphatase non-receptor type 7 (Homo sapiens, UniProt P35236); test: inhibitors of human HePTP phosphatase, […], biochemical, absorbance, leukemia target (AID 521); assay type: functional
T6 sequence (P35236 whole entry): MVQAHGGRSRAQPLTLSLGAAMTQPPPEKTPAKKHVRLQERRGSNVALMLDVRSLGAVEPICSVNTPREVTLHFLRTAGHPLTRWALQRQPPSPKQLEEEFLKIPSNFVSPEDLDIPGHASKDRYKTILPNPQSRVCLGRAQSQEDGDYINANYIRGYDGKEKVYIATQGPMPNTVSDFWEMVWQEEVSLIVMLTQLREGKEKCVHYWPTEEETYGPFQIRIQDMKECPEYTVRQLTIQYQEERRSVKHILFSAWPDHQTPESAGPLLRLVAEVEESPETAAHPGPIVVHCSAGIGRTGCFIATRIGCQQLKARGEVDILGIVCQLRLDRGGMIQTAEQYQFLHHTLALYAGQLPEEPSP

Bcl-2-like protein 10 = target: T7, Bcl-2-like protein 10 (Homo sapiens, UniProt Q9HD36); test: displacers of TR3 peptide from Bcl-B, primary screen, selectivity assay for Bfl-1 inhibitor project, biochemical, fluorescence polarization, FITC-TR3 peptide (AID 748);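 further: fluorescence polarization from a fluorescein-labelled TR3 peptide binding purified Bcl-B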
T7 sequence (Q9HD36 whole entry): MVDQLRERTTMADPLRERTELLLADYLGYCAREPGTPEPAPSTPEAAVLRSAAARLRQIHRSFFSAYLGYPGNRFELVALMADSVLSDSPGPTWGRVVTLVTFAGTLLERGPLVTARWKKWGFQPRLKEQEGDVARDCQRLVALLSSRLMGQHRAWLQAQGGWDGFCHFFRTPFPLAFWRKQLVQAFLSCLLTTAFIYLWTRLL

Bcl-2-like protein 1 = Bcl-2-like protein 1 (Homo sapiens, UniProt Q07817); test: BCL-XL inhibitors, dose response, selectivity assay for MCL1 inhibitor project, biochemical, fluorescence polarization, 1536-well (AID 2218)
Bcl-2-like protein 1, sequence (Q07817 whole entry): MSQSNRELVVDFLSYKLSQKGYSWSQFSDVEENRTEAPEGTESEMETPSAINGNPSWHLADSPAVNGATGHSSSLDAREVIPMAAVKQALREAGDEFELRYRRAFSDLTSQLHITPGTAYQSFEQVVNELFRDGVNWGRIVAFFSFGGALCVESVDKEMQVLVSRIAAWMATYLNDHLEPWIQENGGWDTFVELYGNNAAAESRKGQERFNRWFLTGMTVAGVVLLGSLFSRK

SMILES: O=C(Nc1ccccc1C(F)(F)F)c1cc(-c2ccc(O)cc2)on1
- Absolute IC50 (XBP1) (X-box-binding protein 1): 10 µM

SMILES: COc1ccc(C(=O)c2sc(Nc3ccccc3)nc2N)cc1
- AC50 [5]: 16.8 µM (active)

SMILES: O=C(O)COc1ccc(/C=C/C(=O)c2ccc(C3CCCCC3)cc2)cc1
- IC50 [6]: 2.16 µM (active)
- IC50 (Genome polyprotein): 47.7 µM (active)

SMILES: O=C(COc1ccc2ccc(=O)oc2c1)NCCc1c[nH]c2ccc(F)cc12
- AC50 (Trypsin): 9.56 µM (active)
- AC50 (CAAX prenyl protease 2): 9.47 µM (active)

Continued, in another order:

- IC50 [1]: 5.45 µM (active)
- AC50 [2]: 0.754 µM (active)
- IC50 [3]: 33.2 µM (inactive)
- IC50 (Hexokinase HKDC1): 18.5 µM (active)
SMILES: CC(N=C1C=C(O)c2cccnc2C1=O)C(O)c1ccccc1 (centres undefined)
- AC50 [4]: 111 µM (active)

- IC50 [7]: 7.82 µM (active)
- IC50 [8]: 1.93 µM (active)
- IC50 [9]: 6.39 µM (active)
- IC50 [10]: 5.05 µM (active)
SMILES: CC(=O)Oc1ccc(N2C(=O)C3C(C2=O)C2(C)C=CC3(C)O2)cc1 (centres undefined)

- IC50 [11]: 16.8 µM (not active)
- IC50 [12]: 1.69 µM (active)
- IC50 (Bcl-2-like protein 10): 7.65 µM (active)
- IC50 (Bcl-2-like protein 1): 90.1 µM (not active)
SMILES: CCn1c(SC(C)C(=O)O)nc2sc3c(c2c1=O)CCC3 (centres undefined)
